As a reminder, the IC50 is the concentration that gives 50% inhibition. As usually defined, the GI50 is the concentration that inhibits growth by half.

In one test the target is T1, tankyrase 1 (TNKS1) (Homo sapiens, UniProt O95271).
T1 construct: tankyrase 1 (1,024-1,327aa, SAM+PARP); made in house; host or cells: cell-free protein expression system
The test can be described thus: Tankyrase inhibitory activity test (ELISA, auto-poly(ADP-ribosyl)ation), tankyrase 1. The class given is biochemical. As to conditions: Flag tagged tankyrase 1 (1,024-1,327aa, SAM+PARP); read-out: TNKS1 (inhibitory activity against tankyrase 1, IC50). The method in brief: (§1)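 Cell-free-expressed Flag-tagged TNKS1 (1,024-1,327aa, SAM+PARP) or TNKS2 (613-1,116aa, ANK5+SAM+PARP) was captured on anti-FLAG plates and pre-incubated 10 min at RT with compound (pH 8.0, MgCl2, DTT). Auto-PARylation was started with NAD solution (225 μM NAD, 25 μM biotin-NAD), 45 min at 30 °C. Detection by HRP-streptavidin chemiluminescence; IC50 from residual activity.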

The next test concerns the target T2, tankyrase 2 (TNKS2) (Homo sapiens, UniProt Q9H2K2).
T2 construct: tankyrase 2 (613-1,116aa, ANK5+SAM+PARP); made in house; host or cells: cell-free protein expression system
As to the kind of experiment: Tankyrase inhibitory activity test (ELISA, auto-poly(ADP-ribosyl)ation), tankyrase 2. Conditions: Flag tagged tankyrase 2 (613-1,116aa, ANK5+SAM+PARP); read-out: TNKS2 (inhibitory activity against tankyrase 2, IC50). Format: biochemical. The method in brief: as §1
On the technique in general: ELISA stands for enzyme-linked immunosorbent assay.

In test [1] the test system is human colorectal cancer cell line COLO-320DM. The test can be described thus: Cell proliferation inhibitory activity test (Celltiter-Glo). Format: cell-based. As to conditions: COLO-320DM cells, 96 hours. In general terms: In ATP-based viability assays light output follows the ATP content of the culture.
Test [2] relates to tubulin (microtubule polymerization). The test can be described thus: Microtubule polymerization inhibition test (fluorescence kit BK011P). Format: biochemical. As to conditions: 60 min. Here is the method:
Using a microtubule polymerization reaction measurement kit (Cytoskeleton Inc.; BK011P), the microtubule polymerization inhibitory activity of the compound (test compound) prepared in each of Examples was evaluated on the basis of the standard protocol of the kit. Solutions with concentrations of 30 μM and 150 μM were prepared by dissolving the test compound in DMSO, and used as test compound solutions (with final concentrations of 3 μM and 15 μM, respectively). DMSO was used as a negative control solution, and vincristine (final concentration: 3 μM) was used as a positive control solution.
5 μL of the test compound solution or each control solution, and 50 μL of a microtubule-containing reaction mixture (1×Buffer 1; 1 mM GTP; 15% glycerol; and tubulin with a concentration of 2 mg/mL) were added to a 96-well plate (Corning Costar Company; #3686) warmed to 37° C., and a change in fluorescence of the reaction solution was measured over 1 hour. A higher fluorescence intensity means a higher degree of progression of polymerization of microtubules. The composition of Buffer 1 and the fluorescence measurement conditions employed in the analysis are shown below.
80 mM Piperazine-N,N′-bis[2-ethanesulfonic acid] sequisodium salt; 2.0 mM Magnesium chloride; 0.5 mM Ethylene glycol-bis (β-amino-ethyl ether)N,N,N′,N′-tetra-acetic acid; 10 μM fluorescent reporter
Measurement wavelength: 360 nm (excitation wavelength) and 450 nm (emission wavelength)
Measurement time: 60 min (1 cycle/min)
Equipment used: Microplatereader SpectraMax M2 (Molecular Devices Company)

Where [3] appears, read: racemates, 3 μM (FIG. 1A) and 15 μM (FIG. 1B).

Each structure is given as a SMILES string.

T1 sequence (O95271 1024-1327): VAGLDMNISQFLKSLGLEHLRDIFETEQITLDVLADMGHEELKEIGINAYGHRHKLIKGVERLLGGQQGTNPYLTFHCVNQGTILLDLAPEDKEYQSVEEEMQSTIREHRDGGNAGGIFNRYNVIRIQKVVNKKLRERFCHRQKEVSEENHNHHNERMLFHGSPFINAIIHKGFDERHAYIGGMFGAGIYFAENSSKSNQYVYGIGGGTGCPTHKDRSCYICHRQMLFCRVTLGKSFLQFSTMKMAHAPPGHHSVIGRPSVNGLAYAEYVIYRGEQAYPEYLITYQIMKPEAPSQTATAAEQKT

Turning to `COc1ccc(-c2n[nH]nc2C2NC(=O)c3cccc(C)c3N2)cc1` (racemic) [Example 65, 2-[5-(4-Methoxyphenyl)-2H-1,2,3-triazol-4-yl]-8-methyl-2,3-dihydro-1H-quinazolin-4-one], the IC50 at tankyrase 1 (TNKS1) is 0.005 to 0.02 µM; at tankyrase 2 (TNKS2), below 0.005 µM. Also, the 50% growth inhibitory concentration (GI50) in test [1] was below 1 µM. In addition, the “microtubule polymerization: increase in fluorescence intensity” value (shortened to “microtubule polymerization: increase”) in test [2] (setting [3]) is reported as “slower increase in fluorescence intensity as compared to the DMSO control”.
Regarding `COc1ccc(-c2n[nH]nc2C2NC(=O)c3cccc4c3N2CC4)cc1` (racemic) [Example 69, 11-[5-(4-Methoxyphenyl)-2H-1,2,3-triazol-4-yl]-1,10-diazatricyclo[6.3.1.0^4,12]dodeca-4(12),5,7-trien-9-one], the IC50 on tankyrase 1 (TNKS1) and at tankyrase 2 (TNKS2) was 0.005 to 0.02 µM throughout. In test [1], the GI50 was in the range of 1 to 10 µM. The “microtubule polymerization: increase” value in test [2] (setting [3]) was “slower increase in fluorescence intensity as compared to the DMSO control”.
In the case of `CCOc1ccc(-c2n[nH]nc2C2NC(=O)c3cccc(C)c3N2)cc1` (racemic) [Example 70, 2-[5-(4-Ethoxyphenyl)-2H-1,2,3-triazol-4-yl]-8-methyl-2,3-dihydro-1H-quinazolin-4-one], the figures for the IC50 on tankyrase 1 (TNKS1) and on tankyrase 2 (TNKS2) were 0.005 to 0.02 µM and below 0.005 µM, respectively. Also, the GI50 in test [1] is below 1 µM. Also, the “microtubule polymerization: increase” value in test [2] (setting [3]) is “slower increase in fluorescence intensity as compared to the DMSO control”.
As for `COc1ccc(-c2n[nH]cc2C2NC(=O)c3ccccc3N2C)cc1` (stereo not shown) [Example 83, 2-[5-(4-Methoxyphenyl)-1H-pyrazol-4-yl]-1-methyl-2,3-dihydroquinazolin-4-one], the IC50 at tankyrase 1 (TNKS1) and on tankyrase 2 (TNKS2) was 0.005 to 0.02 µM each time. Besides, in test [1], the GI50 was in the range of 1 to 10 µM.
As for `O=C1NC(c2n[nH]nc2-c2ccc(OCC(F)F)cc2)N2CCc3cccc1c32` (stereo not shown) [Example 84, 11-[5-[4-(2,2-Difluoroethoxy)phenyl]-2H-1,2,3-triazol-4-yl]-1,10-diazatricyclo[6.3.1.0^4,12]dodeca-4(12),5,7-trien-9-one], the IC50 at tankyrase 1 (TNKS1) and on tankyrase 2 (TNKS2) was 0.005 to 0.02 µM throughout. Besides, the GI50 in test [1] was at least 10 µM.
With `COc1ccc(-c2c[nH]nc2C2NC(=O)c3ccccc3N2)cc1` (stereo not shown) [Example 85, 2-[4-(4-Methoxyphenyl)-1H-pyrazol-3-yl]-2,3-dihydro-1H-quinazolin-4-one], the figures for the IC50 on tankyrase 1 (TNKS1) and on tankyrase 2 (TNKS2) were 0.005 to 0.02 µM and below 0.005 µM, respectively. Besides, the GI50 in test [1] fell in the range of 1 to 10 µM.
Taken in the same sequence, the figures for `COc1ccc(-c2c[nH]nc2C2NC(=O)c3ccccc3N2C)cc1` (stereo not shown) [Example 86, 2-[4-(4-Methoxyphenyl)-1H-pyrazol-3-yl]-1-methyl-2,3-dihydro-1H-quinazolin-4-one] were below 0.005 µM, below 0.005 µM and 1 to 10 µM.
As for `COc1ccc(-c2c[nH]nc2C2NC(=O)c3cccc(C)c3N2)cc1` (stereo not shown) [Example 87, 2-[4-(4-Methoxyphenyl)-1H-pyrazol-3-yl]-8-methyl-2,3-dihydro-1H-quinazolin-4-one], the IC50 on tankyrase 1 (TNKS1) and at tankyrase 2 (TNKS2) was below 0.005 µM in each case. Moreover, the GI50 in test [1] is 1 to 10 µM.
As to `CC[C@]1(O)C[C@H]2CN(CCc3c([nH]c4ccccc34)[C@@](C(=O)OC)(c3cc4c(cc3OC)N(C=O)[C@H]3[C@@](O)(C(=O)OC)[C@H](OC(C)=O)[C@]5(CC)C=CCN6CC[C@]43[C@@H]65)C2)C1` [vincristine, reference compound], the “microtubule polymerization: increase” value in test [2] (positive control, final concentration 3 μM) is reported as “slower increase in fluorescence intensity as compared to the DMSO control”.
